# Measured values as given in US20170050980A1, “OXADIAZINE COMPOUNDS AND METHODS OF USE THEREOF” (FORUM Pharmaceuticals Inc., priority 2015, published 2017).
# Tested on: Aβ42
# Assay: In vitro cell screening assay; quantification of Aβ (1-42) peptide by sandwich ELISA
# Type: cell-based
# Conditions: Human neuroglioma H4 cells stably expressing human wild type APP751; compounds 0.003-10 μM, incubated overnight (16-18 h); Aβ42 in supernatant by sandwich ELISA; normalized to DMSO and DAPT; read-out: Aβ42 H4 Prot Fre IC50
# Description: Human neuroglioma H4 cells were transfected with a pcDNA3.1 plasmid expressing human wild type APP751 cDNA and a stable cell line was generated using G418 selection. Cells were plated at 15,000 cells/well in Costar 96-well plates and placed at 37° C. and 5% CO2. Six hours after plating, cells were washed three times with Pro293™ chemically defined medium, followed by addition of compounds (0.003-10 μM, final DMSO concentration of 0.33%). Plates were incubated overnight (16-18 h) and supernatant was removed for quantification of Aβ peptides by sandwich ELISA. Cytotoxicity was evaluated using Cell-Titer 96W AQueous One Solution Cell Proliferation Assay according to the manufacturer's protocol.
# Aβ peptide levels were quantified by sandwich ELISA. 96-well plates were coated with C-terminal specific Aβ antibodies recognizing either Aβ37, Aβ38, Aβ40, Aβ42, Aβ43 or a N-terminal specific Aβ antibody to detect Aβ 1-x. Plates were then blocked overnight at 4° C. with 1% bovine serum albumin (BSA) in PBS-T. Plates were washed and 100 μl of cultured cell supernatant or synthetic Aβ peptide standards and a detection antibody (4G8-HRP) were applied to the blocked plate and incubated overnight at 4° C. The next day, wells were washed before the addition of detection substrate (TMB peroxidase). Plates were then read for absorbance at 450 nm on a Molecular Devices SpectraMax M5e Microplate Reader.
# Compound-treated samples were normalized to samples treated with DMSO alone (no inhibition) and to samples treated with DAPT. IC50 values were calculated from values reported as percent of DMSO controls using nonlinear regression, based on a sigmoidal dose—response (variable slope) model. […] used for calculation.
row,Compound,IC50 [µM]
1,"COc1nc(C2=NOC(C)C(c3cccc(Cl)c3)N2)ccc1-n1cnc(C)c1 (single isomer, unassigned) [Example 41A, 5-(3-chlorophenyl)-3-(6-methoxy-5-(4-methyl-1H-imidazol-1-yl)pyridin-2-yl)-6-methyl-5,6-dihydro-4H-1,2,4-oxadiazine]",1.43
2,"COc1nc(C2=NOCC(C)(c3cn(C)c4ccccc34)N2)ccc1-n1cnc(C)c1 (single isomer, unassigned; (-)) [Example 26B, (−)-3-[3-[6-methoxy-5-(4-methyl-1H-imidazol-1-yl)pyridin-2-yl]-5-methyl-5,6-dihydro-4H-1,2,4-oxadiazin-5-yl]-1-methyl-1H-indole]",0.31
3,"COc1nc(C2=NOC(C)C(c3cn(C)c4ccc(F)c(F)c34)N2)ccc1-n1cnc(C)c1 (single isomer, unassigned; (+)) [Example 52C, (+)-5-(4,5-difluoro-1-methyl-1H-indol-3-yl)-3-(6-methoxy-5-(4-methyl-1H-imidazol-1-yl)pyridin-2-yl)-6-methyl-5,6-dihydro-4H-1,2,4-oxadiazine]",0.0058
4,"COc1nc(C2=NOC(C)C(c3cccc(Cl)c3)N2)ccc1-c1ccnc(C)c1 (single isomer, unassigned; (+)) [Example 49B, (+)-5-(3-chlorophenyl)-3-(2-methoxy-2′-methyl-[3,4′-bipyridin]-6-yl)-6-methyl-5,6-dihydro-4H-1,2,4-oxadiazine]",0.0158
5,"COc1nc(C2=NOC(C3CC3)C(c3cn(C)c4ncc(Cl)cc34)N2)ccc1-n1cnc(C)c1 (stereo not drawn) [57B or 58B, (−)-(cis)-5-(5-chloro-1-methyl-1H-pyrrolo[2,3-b]pyridin-3-yl)-6-cyclopropyl-3-(6-methoxy-5-(4-methyl-1H-imidazol-1-yl)pyridin-2-yl)-5,6-dihydro-4H-1,2,4-oxadiazine]",0.0067
6,"COc1nc(C2=NOC(C)C(c3ccc(Cl)c(Cl)c3)N2)ccc1-n1cnc(C)c1 (stereo not drawn) [Example 19A, (−)-cis-5-(3,4-dichlorophenyl)-3-[6-methoxy-5-(4-methyl-1H-imidazol-1-yl)pyridin-2-yl]-6-methyl-5,6-dihydro-4H-1,2,4-oxadiazine]",0.91
7,"COc1nc(C2=NOC(C3CC3)C(c3cn(C)c4ncc(F)c(F)c34)N2)ccc1-n1cnc(C)c1 (single isomer, unassigned; (-)) [Example 60B, (−)-6-cyclopropyl-5-(4,5-difluoro-1-methyl-1H-pyrrolo [2,3-b]pyridin-3-yl)-3-(6-methoxy-5-(4-methyl-1H-imidazol-1-yl)pyridin-2-yl)-5,6-dihydro-4H-1,2,4-oxadiazine]",0.0427
8,"COc1nc(C2=NOC(C)C(c3cn(C)c4ncc(C(F)(F)F)cc34)N2)ccc1-n1cnc(C)c1 (single isomer, unassigned; (+)) [44B or 45B, (+)-3-(6-methoxy-5-(4-methyl-1H-imidazol-1-yl)pyridin-2-yl)-6-methyl-5-(1-methyl-5-(trifluoromethyl)-1H-pyrrolo[2,3-b]pyridin-3-yl)-5,6-dihydro-4H-1,2,4-oxadiazine]",0.0082
9,"COc1nc(C2=NOC(C)C(c3cn(C)c4ccc(F)c(F)c34)N2)ccc1-n1cnc(C)c1 (single isomer, unassigned; (+)) [Example 52B, (+)-5-(4,5-difluoro-1-methyl-1H-indol-3-yl)-3-(6-methoxy-5-(4-methyl-1H-imidazol-1-yl)pyridin-2-yl)-6-methyl-5,6-dihydro-4H-1,2,4-oxadiazine]",0.0029
10,"COc1nc(C2=NOC(C)C(c3cn(C)c4ccc(F)c(F)c34)N2)ccc1-n1cnc(C)c1 (single isomer, unassigned; (-)) [Example 52D, (−)-5-(4,5-difluoro-1-methyl-1H-indol-3-yl)-3-(6-methoxy-5-(4-methyl-1H-imidazol-1-yl)pyridin-2-yl)-6-methyl-5,6-dihydro-4H-1,2,4-oxadiazine]",0.401
11,"COc1nc(C2=NOC(C)C(c3cn(C)c4ncc(C5CC5)cc34)N2)ccc1-n1cnc(C)c1 (single isomer, unassigned; (-)) [Example 56B, (−)-5-(5-cyclopropyl-1-methyl-1H-pyrrolo [2,3-b]pyridin-3-yl)-3-(6-methoxy-5-(4-methyl-1H-imidazol-1-yl)pyridin-2-yl)-6-methyl-5,6-dihydro-4H-1,2,4-oxadiazine]",0.013
12,"COc1nc(C2=NOC(C)C(c3cn(C)c4ncc(F)c(F)c34)N2)ccc1-n1cnc(C)c1 (single isomer, unassigned; (-)) [Example 51B, (−)-5-(4,5-difluoro-1-methyl-1H-pyrrolo [2,3-b]pyridin-3-yl)-3-(6-methoxy-5-(4-methyl-1H-imidazol-1-yl)pyridin-2-yl)-6-methyl-5,6-dihydro-4H-1,2,4-oxadiazine]",0.218
13,"COc1nc(C2=NOC3(CC3)C(c3ccc(Cl)cc3)N2)ccc1-n1cnc(C)c1 (single isomer, unassigned; (+)) [Example 25B, (+)-8-(4-chlorophenyl)-6-[6-methoxy-5-(4-methyl-1H-imidazol-1-yl)pyridin-2-yl]-4-oxa-5,7-diazaspiro[2.5]oct-5-ene]",0.026
14,"COc1nc(C2=NOC(C)C(c3ccc(Cl)c(Cl)c3)N2)ccc1-n1cnc(C)c1 (stereo not drawn) [Example 19B, (+)-cis-5-(3,4-dichlorophenyl)-3-[6-methoxy-5-(4-methyl-1H-imidazol-1-yl)pyridin-2-yl]-6-methyl-5,6-dihydro-4H-1,2,4-oxadiazine]",0.006
15,"COc1nc(C2=NOC(C3CC3)C(c3cn(C)c4ncc(Cl)cc34)N2)ccc1-n1cnc(C)c1 (stereo not drawn) [57A or 58A, (+)-(cis)-5-(5-chloro-1-methyl-1H-pyrrolo[2,3-b]pyridin-3-yl)-6-cyclopropyl-3-(6-methoxy-5-(4-methyl-1H-imidazol-1-yl)pyridin-2-yl)-5,6-dihydro-4H-1,2,4-oxadiazine]",1.24
16,"COc1nc(C2=NOCC3CN(c4ccc(Cl)cc4C(F)(F)F)CCN23)ccc1-n1cnc(C)c1 (single isomer, unassigned) [Example 36A, 8-(4-chloro-2-(trifluoromethyl)phenyl)-4-(6-methoxy-5-(4-methyl-1H-imidazol-1-yl)pyridin-2-yl)-1,6,7,8,9,9a-hexahydropyrazino [1,2-d] [1,2, 4] oxadiazine]",0.064
17,"COc1nc(C2=NOC(C)C(c3c4n(c5ccc(Cl)cc35)CCOC4)N2)ccc1-n1cnc(C)c1 (single isomer, unassigned; (-)) [Example 50C, (−)-8-chloro-10-(3-(6-methoxy-5-(4-methyl-1H-imidazol-1-yl)pyridin-2-yl)-6-methyl-5,6-dihydro-4H-1,2,4-oxadiazin-5-yl)-3,4-dihydro-1H-[1,4] oxazino [4,3-a] indole]",0.352
18,"COc1nc(C2=NOC(C3CC3)C(c3cn(C)c4nccc(F)c34)N2)ccc1-n1cnc(C)c1 (single isomer, unassigned; (-)) [Example 63B, (−)-6-cyclopropyl-5-(4-fluoro-1-methyl-1H-pyrrolo [2,3-b]pyridin-3-yl)-3-(6-methoxy-5-(4-methyl-1H-imidazol-1-yl)pyridin-2-yl)-5,6-dihydro-4H-1,2,4-oxadiazine]",0.105
19,"COc1nc(C2=NOCC(c3c4n(c5ccc(Cl)cc35)CCOC4)N2)ccc1-n1cnc(C)c1 (single isomer, unassigned; (-)) [Example 28B, (−)-8-chloro-10-(3-(6-methoxy-5-(4-methyl-1H-imidazol-1-yl)pyridin-2-yl)-5,6-dihydro-4H-1,2,4-oxadiazin-5-yl)-3,4-dihydro-1H-[1,4]oxazino[4,3-a]indole]",0.0618
20,"COc1nc(C2=NOCC3CN(c4ccc(Cl)cc4C(F)(F)F)CCN23)ccc1-n1cnc(C)c1 (single isomer, unassigned) [Example 36B, 8-(4-chloro-2-(trifluoromethyl)phenyl)-4-(6-methoxy-5-(4-methyl-1H-imidazol-1-yl)pyridin-2-yl)-1,6,7,8,9,9a-hexahydropyrazino [1,2-d] [1,2,4] oxadiazine]",0.307
21,"COc1nc(C2=NOC(C)C(c3cn(C)c4cc(F)c(F)cc34)N2)ccc1-n1cnc(C)c1 (single isomer, unassigned; (-)) [Example 39C, (−)-5-(5,6-difluoro-1-methyl-1H-indol-3-yl)-3-(6-methoxy-5-(4-methyl-1H-imidazol-1-yl)pyridin-2-yl)-6-methyl-5,6-dihydro-4H-1,2,4-oxadiazine]",0.729
22,"COc1cc(C2=NOC(C)C(c3ccc(Cl)cc3)N2)ccc1-n1cnc(C)c1 (single isomer, unassigned; (+)) [Example 43B, (+)-5-(4-chlorophenyl)-3-(3-methoxy-4-(4-methyl-1H-imidazol-1-yl)phenyl)-6-methyl-5,6-dihydro-4H-1,2,4-oxadiazine]",0.0805
23,"COc1nc(C2=NOCC(c3cn(C)c4ccc(C5CCOCC5)cc34)N2)ccc1-n1cnc(C)c1 (single isomer, unassigned; (+)) [Example 29B, (+)-3-(6-methoxy-5-(4-methyl-1H-imidazol-1-yl)pyridin-2-yl)-5-(1-methyl-5-(tetrahydro-2H-pyran-4-yl)-1H-indol-3-yl)-5,6-dihydro-4H-1,2,4-oxadiazine]",0.0205
